Columns and labels:
[1] = tested on: C57BL/6 cultured neurites; test: Vincristine neuropathy in C57BL/6 mouse DRG cultures; type: cell-based
Description: DRGs were allowed to mature for 5 days to create a lush halo of neurites. […] This date was defined as treatment day 0. […] Cultures were monitored and imaged on day 0, day 4, day 8 and day 10 of treatment using video microscopy.
Measures of axonal survival were the length of longest remaining axon, and the area of remaining DRG halo, as determined by serial phase-contrast video microscopy (FIG. 6). The axonal length was measured from the center of the DRG to the visible distal end of the axon. […] Data were thus analyzed as percent of day 0.

C57BL/6 DRG axons = test: Vincristine withdrawal in C57BL/6 mouse DRG cultures; type: cell-based; details: 0.05 μM vincristine for 24 hours, 4 days after exposure
Description: The methods for DRG culture have been previously described.
Cultures were measured for length of longest axon and area of the DRG halo at days 4, 8, 12, 16 and 20. Lengths were measured from the center of the DRG to the visible distal end of the axon, and areas were calculated by tracing the circumference crested by connecting the tips of the remaining axons. […] Comparisons were made between quantitative data for C57BL/6 and Wld^S axons. For assessment of growth, day 4 observations in Wld^S were compared to all succeeding days using ANOVA for repeated measures.

[2] = vincristine 0.01 μM, Day 4, C57BL/6
[3] = vincristine 0.01 μM, Day 10, C57BL/6
[4] = vincristine 0.02 μM, Day 4, C57BL/6
[5] = vincristine 0.02 μM, Day 8, C57BL/6
[6] = vincristine 0.02 μM, Day 10, C57BL/6
[7] = vincristine 0.05 μM, Day 4, C57BL/6
[8] = vincristine 0.05 μM, Day 8, C57BL/6
[9] = vincristine 0.05 μM, Day 10, C57BL/6
[10] = vincristine 0.1 μM, Day 4, C57BL/6
[11] = vincristine 0.1 μM, Day 8, C57BL/6
[12] = vincristine 0.1 μM, Day 10, C57BL/6

Q: With Vincristine sulfate salt as the substance, how does the “halo area at day 10 compared to day 0” value ([1]; C57BL/6, vincristine 0.01 μM) read?
A: 42.86±7.30%

Q: What about the “length of longest axons at day 10 compared to day 0” value ([1]; C57BL/6, vincristine 0.01 μM) of the same substance?
A: 50.99±5.97%

Q: What about the “halo area at day 10 compared to day 0” value ([1]; C57BL/6, vincristine 0.1 μM) of the same substance?
A: 0.45±0.09%

Q: What about the “length of longest axons at day 10 compared to day 0” value ([1]; C57BL/6, vincristine 0.1 μM) of the same substance?
A: 3.56±0.62%

Q: And the “Area of DRG Halo” value [1, 2]?
A: 7.34 ± 0.78 mm^2

Q: What about the “Length of Longest Neurite” value [1, 2] of the same substance?
A: 1.77 ± 0.12 mm

Q: And the “Area of DRG Halo” value ([1]; vincristine 0.01 μM, Day 8, C57BL/6)?
A: 5.79 ± 0.86 mm^2

Q: And the “Area of DRG Halo” value [1, 3]?
A: 4.42 ± 0.85 mm^2

Q: And the “Length of Longest Neurite” value [1, 3]?
A: 1.22 ± 0.17 mm

Q: And the “Area of DRG Halo” value [1, 4]?
A: 4.56 ± 1.10 mm^2

Q: What about the “Length of Longest Neurite” value [1, 4] of the same substance?
A: 1.28 ± 0.22 mm

Q: What about the “Area of DRG Halo” value [1, 5] of the same substance?
A: 1.14 ± 0.49 mm^2

Q: What about the “Length of Longest Neurite” value [1, 5] of the same substance?
A: 0.53 ± 0.16 mm

Q: And the “Area of DRG Halo” value [1, 6]?
A: 0.56 ± 0.27 mm^2

Q: And the “Length of Longest Neurite” value [1, 6]?
A: 0.41 ± 0.13 mm

Q: What about the “Area of DRG Halo” value [1, 7] of the same substance?
A: 1.20 ± 0.47 mm^2

Q: And the “Length of Longest Neurite” value [1, 7]?
A: 0.32 ± 0.08 mm

Q: What about the “Area of DRG Halo” value [1, 8] of the same substance?
A: 0.05 ± 0.01 mm^2

Q: And the “Length of Longest Neurite” value [1, 8]?
A: 0.09 ± 0.01 mm

Q: And the “Area of DRG Halo” value [1, 9]?
A: 0.04 ± 0.01 mm^2

Q: What about the “Length of Longest Neurite” value [1, 9] of the same substance?
A: 0.07 ± 0.01 mm

Q: What about the “Area of DRG Halo” value [1, 10] of the same substance?
A: 0.46 ± 0.19 mm^2

Q: What about the “Length of Longest Neurite” value [1, 10] of the same substance?
A: 0.30 ± 0.09 mm

Q: And the “Area of DRG Halo” value [1, 11]?
A: 0.04 ± 0.01 mm^2

Q: And the “Length of Longest Neurite” value [1, 11]?
A: 0.08 ± 0.01 mm

Q: What about the “Area of DRG Halo” value [1, 12] of the same substance?
A: 0.04 ± 0.01 mm^2

Q: And the “Length of Longest Neurite” value [1, 12]?
A: 0.08 ± 0.01 mm

Q: What about the “DRG area, % of control values” (C57BL/6 DRG axons) of the same substance?
A: 32%

Q: What about the “axon length, % of control values” (C57BL/6 DRG axons) of the same substance?
A: 35%
